Tests used:
CRAF (306-end) = target: T1, CRAF (306-end) (Homo sapiens, UniProt P04049); test: ITC assay; assay type: binding; conditions: PBS (0.1% DMSO, pH = 7.4), read-out: affinity (Kd)
T1 construct: purchased
Protocol: (§1) 293 T cells were transfected with plasmids of pcDNA3.1-3×Flag-C-MAP2K1/MAP2K1 (K97A, M146A), MAP2K2/MAP2K1 (K101A, M150A), or CRAF/CRAF (K375A). […]
(§2) The ITC experiment was performed on a MicroCal PEAQ-ITC. […] All proteins and erianin were diluted with PBS (0.1% DMSO, pH = 7.4), and deionized water was injected into the reference cell as a heat balance control. After 19 times titrations of erianin into the sample cell at a constant rate of 150 s, the titration curve was fitted with nonlinear least squares estimation model using Microcal ORIGIN V7.0.

MEK1 full length = MEK1 full length (Homo sapiens, UniProt Q02750); test: ITC assay; assay type: binding; conditions: PBS (0.1% DMSO, pH = 7.4), read-out: affinity (Kd)
Sequence of MEK1 full length (Q02750 whole entry): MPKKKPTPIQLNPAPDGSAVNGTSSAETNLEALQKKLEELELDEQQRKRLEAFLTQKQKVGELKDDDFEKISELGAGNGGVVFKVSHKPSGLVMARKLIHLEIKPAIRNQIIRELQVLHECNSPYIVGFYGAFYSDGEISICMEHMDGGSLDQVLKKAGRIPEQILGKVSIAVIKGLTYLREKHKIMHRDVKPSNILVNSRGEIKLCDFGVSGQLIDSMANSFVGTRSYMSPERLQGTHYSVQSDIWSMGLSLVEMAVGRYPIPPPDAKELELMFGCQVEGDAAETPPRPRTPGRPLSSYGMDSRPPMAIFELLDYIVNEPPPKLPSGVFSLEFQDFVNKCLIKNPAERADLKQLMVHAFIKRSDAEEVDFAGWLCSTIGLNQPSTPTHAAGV
Protocol: as §1, §2

MEK2 full length = MEK2 full length (Homo sapiens, UniProt P36507); test: ITC assay; assay type: binding; conditions: PBS (0.1% DMSO, pH = 7.4), read-out: affinity (Kd)
Sequence of MEK2 full length (P36507 whole entry): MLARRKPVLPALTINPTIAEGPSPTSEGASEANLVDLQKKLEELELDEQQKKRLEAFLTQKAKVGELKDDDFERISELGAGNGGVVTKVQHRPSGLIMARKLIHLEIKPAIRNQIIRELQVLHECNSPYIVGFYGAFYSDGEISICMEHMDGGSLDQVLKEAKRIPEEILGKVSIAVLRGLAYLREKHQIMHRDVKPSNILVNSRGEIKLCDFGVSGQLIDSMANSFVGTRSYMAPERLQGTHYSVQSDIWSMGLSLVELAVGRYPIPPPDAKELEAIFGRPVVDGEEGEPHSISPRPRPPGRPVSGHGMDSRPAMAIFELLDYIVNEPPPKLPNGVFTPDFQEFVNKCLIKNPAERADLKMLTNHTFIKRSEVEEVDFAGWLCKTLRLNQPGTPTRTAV
Protocol: as §1, §2

active CRAF (306-end) = target: T2, active CRAF (306-end) (Homo sapiens, UniProt P04049, Y340E/Y341E); test: In vitro kinase assay (western blotting); assay type: biochemical; conditions: 12.5 to 50 nM, dose-dependent
T2 construct: purchased Signal Chem R01-13G
Protocol: (§3) After incubated with 100–400 μM ATP in kinase assay buffer for 30 min, the phosphorylation of the substrate/total substrate protein was detected by western blotting. For ADP-glo kinase assay, unconsumed ATP was depleted with the addition of ADP-Glo™. Followed by kinase detection reagent to convert ADP to ATP, consumption of ATP was detected to evaluate the kinase activity. For more details, refer to the manufacturer’s instructions of ADP-Glo™ Kinase Assay.

[1] = target: active GST-MEK1 full length (Homo sapiens, UniProt Q02750); test: In vitro kinase assay (western blotting); assay type: biochemical; conditions: 12.5 to 50 nM, dose-dependent
Sequence of active GST-MEK1 full length (Q02750 whole entry): as the sequence (Q02750 whole entry) above
Protocol: as §3

[2] = target: active GST-MEK2 full length (Homo sapiens, UniProt P36507); test: In vitro kinase assay (western blotting); assay type: biochemical; conditions: 12.5 to 50 nM, dose-dependent
Sequence of active GST-MEK2 full length (P36507 whole entry): as the sequence (P36507 whole entry) above
Protocol: as §3

BRAF V600E (416-end) = target: T3, BRAF V600E (416-end) (Homo sapiens, UniProt P15056, V600E); test: In vitro kinase assay (western blotting); assay type: biochemical; conditions: 12.5 to 50 nM
T3 construct: purchased Signal Chem B08-12G
T3 sequence (P15056 416-766 V600E): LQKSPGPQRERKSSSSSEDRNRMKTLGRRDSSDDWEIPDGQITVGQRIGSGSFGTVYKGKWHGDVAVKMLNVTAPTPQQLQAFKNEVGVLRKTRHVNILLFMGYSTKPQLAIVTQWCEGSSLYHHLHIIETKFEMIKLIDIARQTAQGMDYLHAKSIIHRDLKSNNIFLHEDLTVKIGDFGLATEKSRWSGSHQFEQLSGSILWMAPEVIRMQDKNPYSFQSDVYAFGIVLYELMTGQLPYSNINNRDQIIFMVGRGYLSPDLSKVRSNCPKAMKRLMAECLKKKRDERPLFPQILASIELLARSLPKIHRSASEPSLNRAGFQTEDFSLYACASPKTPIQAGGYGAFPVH
Protocol: as §3
(§4) Figure S2. […] Enzyme kinetics parameters including Vmax and Km were obtained using the Michaelis double-reciprocal curve equation.

BRAF WT (381-end) = target: T4, BRAF WT (381-end) (Homo sapiens, UniProt P15056); test: In vitro kinase assay (western blotting); assay type: biochemical; conditions: 12.5 to 50 nM
T4 construct: purchased Signal Chem B08-11BG
T4 sequence (P15056 381-766 limits assumed): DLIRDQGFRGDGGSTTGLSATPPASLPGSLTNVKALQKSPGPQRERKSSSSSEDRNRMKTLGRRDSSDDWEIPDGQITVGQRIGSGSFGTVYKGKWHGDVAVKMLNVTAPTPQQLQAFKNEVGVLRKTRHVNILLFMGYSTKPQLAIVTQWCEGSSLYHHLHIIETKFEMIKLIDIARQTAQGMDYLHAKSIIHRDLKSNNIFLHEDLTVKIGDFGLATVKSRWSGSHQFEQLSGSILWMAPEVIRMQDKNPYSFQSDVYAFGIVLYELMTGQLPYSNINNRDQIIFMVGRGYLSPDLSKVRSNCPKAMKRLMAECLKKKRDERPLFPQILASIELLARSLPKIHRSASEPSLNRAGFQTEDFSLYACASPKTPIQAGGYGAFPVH
Protocol: as §3, §4

[3] = system: SK-MEL-2, A375, SK-MEL-28, and HCT 116; test: Combination index assay; assay type: cell-based, human; conditions: erianin with vemurafenib; most of the CI; BRAF and RAS mutant cell lines
Protocol: (§5) The synergism and antagonism (CI value) were determined and analyzed using CompuSyn 1.0.
as §5

HCT116 (KRAS mut) CDX = test: Cell-derived xenograft (CDX); assay type: in vivo, NOD-SCID mice; conditions: 50 mg/kg, oral gavage
Protocol: (§6) Tumor volume (mm^3) = (length × width × height) × 0.52. SK-MEL-2: n = 10; A375 and SK-MEL-28: n = 8; HCT116: n = 9. b The photographs show tumors from CDX mice treated with vehicle, erianin, vemurafenib, or the combination. c The weight of the tumors was quantified and expressed as the treatment groups compared with the vehicle-treated group. […] The tissue lysates were prepared from CDX tumor tissues in each treatment group. […] Each point represents the IOD values of four quantified data from one mouse. Scale bars: 50 μm.
(§7) The animal experiments were performed according to the guidelines approved by the Zhengzhou University Institutional Animal Care and Use Committee. A375 cell line (1 × 10^7 cell/mouse), SK-MEL-28 cell line (5 × 10^6 cell/mouse), SK-MEL-2 cell (5 × 10^6 cell/mouse), and HCT116 cell line (1 × 10^7 cell/mouse) were injected subcutaneously into the NOD-SCID mice (Vital River Labs, Beijing, China). For the melanoma PDX mice model, the tumor was taken after surgical operation and implanted into the NPG (Vital River Labs, Beijing, China) mice under a sterile environment. For the colorectal cancer PDX mice model, NOD-SCID mice were selected as carriers for tumor growth. The measurement of tumor size was performed twice a week using vernier caliper and the calculation of tumor volume was done according to tumor volume (mm^3) = length × width × height × 0.52.

SK-MEL-2 (NRAS mut) CDX = test: Cell-derived xenograft (CDX); assay type: in vivo, NOD-SCID mice; conditions: 50 mg/kg, oral gavage
Protocol: as §6, §7

[4] = system: colorectal cancer PDX harboring KRAS mutation; test: Patient-derived xenograft (PDX); parameters: species or system NOD-SCID mice; conditions: mouse, in vivo
Source text: Figure S7. […] Tumor volume of (c). e Tumor weight of (c). f, h Changes of body weight after drug administration in melanoma and CRC PDX model. g, i HE staining of liver and spleen in melanoma PDX model. Scale bars: 200 μm.

CK1(y) = test: KinaseProfiler enzyme profiling; assay type: biochemical, yeast; conditions: 10 µM
Source text: Enzyme profiling services were provided by KinaseProfiler™ (Eurofin, Brussels, Belgium). […] For more details, refer to the manufacturer’s instructions (www.eurofinsdiscoveryservices.com).

Structure (SMILES)	Kd (CRAF (306-end))	Kd (MEK1 full length)	Kd (MEK2 full length)	CRAF kinase activity (phosphorylation of MEK1) (active CRAF (306-end))	MEK1 kinase activity (phosphorylation of ERK1) [1]	MEK2 kinase activity (phosphorylation of ERK2) [2]	BRAF V600E kinase activity (BRAF V600E (416-end))	BRAF WT kinase activity (BRAF WT (381-end))	combination index (CI) [3]	tumor volume and tumor weight (HCT116 (KRAS mut) CDX)	tumor volume and tumor weight (SK-MEL-2 (NRAS mut) CDX)	toxicity in body weight [4]	tumor growth [4]	Activity % (CK1(y))
COc1ccc(CCc2cc(OC)c(OC)c(OC)c2)cc1O [Erianin]	46 µM	59.3 µM	101 µM	inhibited	inhibited	inhibited	could not suppress	could not suppress	≤ 1	inhibited tumor volume and tumor weight significantly	inhibited tumor volume and tumor weight significantly	low toxicity	restrained tumor growth significantly	
COc1cc2oc(-c3ccc(O)c(O)c3)cc(=O)c2c(O)c1OC [Cirsiliol]														95%

Source: PMC9986241 (Signal Transduction and Targeted Therapy, 2023)
